Data from patent publication US20220233512A1, “INHIBITING AN IMMUNE RESPONSE MEDIATED BY ONE OR MORE OF TLR2, RAGE, CCR5, CXCR4 AND CD4” (priority 2020, published 2022).

Tests used:
[1] = target: T1, biotinylated FLNA pentapeptide of positions 2561-2565 (Homo sapiens, UniProt P21333); assay: FITC-NLX-based FLNA screening assay; type: binding; conditions: for Percent inhibition of FITC-NLX binding (preliminary study): 100 nM frozen-stored FITC-NLX, average of two runs
T1 construct: the biotinylated FLNA pentapeptide of positions 2561-2565
Protocol: [50 ml of the peptide solution from B+50 ml binding medium, final concentration for DMSO: 0.5%].
The final assay volume is 100 ml.
The final screening concentration for each new compound is initially 10 mM.
Compounds are tested in triplicate or quadruplicate.

mu opiate receptor (MOR) = target: T2, mu opiate receptor (MOR) (Rattus norvegicus, UniProt P33535); assay: MOR agonist activity using [35S]GTPgS binding assay in striatal membranes; type: biochemical; set-up: MOR agonist activity (preliminary study): unit of the concentration uncertain; conditions: for MOR agonist activity (preliminary study): average of two runs
T2 construct: from tissue; host or cells: striatum (membrane preparation)
How it was run: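 Rat striatal membranes incubated 5 min at 30 °C in pH 7.5 HEPES buffer with 100 mM NaCl, 1 mM MgCl2 and 0.5 nM [35S]GTPgS, then 5 min with compound. Gαo-bound [35S]GTPgS isolated by immunoprecipitation and counted by liquid scintillation.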

[2] = target: FLNA interactions with CXCR4, CD4 and CCR5 (Homo sapiens, UniProt P21333); assay: FLNA interactions with CXCR4, CD4 and CCR5 in lymphocytes (western blot); conditions: 1 nM; lymphocytes of Ab42-treated young control subject and of AD patient
[3] = 0.1 μM compound as agonist, Series C-1 table
[4] = 1 μM compound as agonist, Series C-1 table
[5] = 0.1 μM compound as agonist, Series C-2 table
[6] = 1 μM compound as agonist, Series C-2 table

T2 sequence (P33535 whole entry): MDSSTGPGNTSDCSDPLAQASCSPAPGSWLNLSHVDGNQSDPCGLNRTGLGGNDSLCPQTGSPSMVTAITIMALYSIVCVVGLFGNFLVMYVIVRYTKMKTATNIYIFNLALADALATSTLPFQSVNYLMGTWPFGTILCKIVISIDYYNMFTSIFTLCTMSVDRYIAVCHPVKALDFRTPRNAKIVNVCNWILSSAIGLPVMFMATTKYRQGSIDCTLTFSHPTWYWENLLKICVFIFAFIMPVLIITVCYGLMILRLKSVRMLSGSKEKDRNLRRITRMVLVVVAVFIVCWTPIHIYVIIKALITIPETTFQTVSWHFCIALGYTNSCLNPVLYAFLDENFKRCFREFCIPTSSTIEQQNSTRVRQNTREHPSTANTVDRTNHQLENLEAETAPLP
Chain of FLNA interactions with CXCR4, CD4 and CCR5 (P21333 2-2647 limits assumed): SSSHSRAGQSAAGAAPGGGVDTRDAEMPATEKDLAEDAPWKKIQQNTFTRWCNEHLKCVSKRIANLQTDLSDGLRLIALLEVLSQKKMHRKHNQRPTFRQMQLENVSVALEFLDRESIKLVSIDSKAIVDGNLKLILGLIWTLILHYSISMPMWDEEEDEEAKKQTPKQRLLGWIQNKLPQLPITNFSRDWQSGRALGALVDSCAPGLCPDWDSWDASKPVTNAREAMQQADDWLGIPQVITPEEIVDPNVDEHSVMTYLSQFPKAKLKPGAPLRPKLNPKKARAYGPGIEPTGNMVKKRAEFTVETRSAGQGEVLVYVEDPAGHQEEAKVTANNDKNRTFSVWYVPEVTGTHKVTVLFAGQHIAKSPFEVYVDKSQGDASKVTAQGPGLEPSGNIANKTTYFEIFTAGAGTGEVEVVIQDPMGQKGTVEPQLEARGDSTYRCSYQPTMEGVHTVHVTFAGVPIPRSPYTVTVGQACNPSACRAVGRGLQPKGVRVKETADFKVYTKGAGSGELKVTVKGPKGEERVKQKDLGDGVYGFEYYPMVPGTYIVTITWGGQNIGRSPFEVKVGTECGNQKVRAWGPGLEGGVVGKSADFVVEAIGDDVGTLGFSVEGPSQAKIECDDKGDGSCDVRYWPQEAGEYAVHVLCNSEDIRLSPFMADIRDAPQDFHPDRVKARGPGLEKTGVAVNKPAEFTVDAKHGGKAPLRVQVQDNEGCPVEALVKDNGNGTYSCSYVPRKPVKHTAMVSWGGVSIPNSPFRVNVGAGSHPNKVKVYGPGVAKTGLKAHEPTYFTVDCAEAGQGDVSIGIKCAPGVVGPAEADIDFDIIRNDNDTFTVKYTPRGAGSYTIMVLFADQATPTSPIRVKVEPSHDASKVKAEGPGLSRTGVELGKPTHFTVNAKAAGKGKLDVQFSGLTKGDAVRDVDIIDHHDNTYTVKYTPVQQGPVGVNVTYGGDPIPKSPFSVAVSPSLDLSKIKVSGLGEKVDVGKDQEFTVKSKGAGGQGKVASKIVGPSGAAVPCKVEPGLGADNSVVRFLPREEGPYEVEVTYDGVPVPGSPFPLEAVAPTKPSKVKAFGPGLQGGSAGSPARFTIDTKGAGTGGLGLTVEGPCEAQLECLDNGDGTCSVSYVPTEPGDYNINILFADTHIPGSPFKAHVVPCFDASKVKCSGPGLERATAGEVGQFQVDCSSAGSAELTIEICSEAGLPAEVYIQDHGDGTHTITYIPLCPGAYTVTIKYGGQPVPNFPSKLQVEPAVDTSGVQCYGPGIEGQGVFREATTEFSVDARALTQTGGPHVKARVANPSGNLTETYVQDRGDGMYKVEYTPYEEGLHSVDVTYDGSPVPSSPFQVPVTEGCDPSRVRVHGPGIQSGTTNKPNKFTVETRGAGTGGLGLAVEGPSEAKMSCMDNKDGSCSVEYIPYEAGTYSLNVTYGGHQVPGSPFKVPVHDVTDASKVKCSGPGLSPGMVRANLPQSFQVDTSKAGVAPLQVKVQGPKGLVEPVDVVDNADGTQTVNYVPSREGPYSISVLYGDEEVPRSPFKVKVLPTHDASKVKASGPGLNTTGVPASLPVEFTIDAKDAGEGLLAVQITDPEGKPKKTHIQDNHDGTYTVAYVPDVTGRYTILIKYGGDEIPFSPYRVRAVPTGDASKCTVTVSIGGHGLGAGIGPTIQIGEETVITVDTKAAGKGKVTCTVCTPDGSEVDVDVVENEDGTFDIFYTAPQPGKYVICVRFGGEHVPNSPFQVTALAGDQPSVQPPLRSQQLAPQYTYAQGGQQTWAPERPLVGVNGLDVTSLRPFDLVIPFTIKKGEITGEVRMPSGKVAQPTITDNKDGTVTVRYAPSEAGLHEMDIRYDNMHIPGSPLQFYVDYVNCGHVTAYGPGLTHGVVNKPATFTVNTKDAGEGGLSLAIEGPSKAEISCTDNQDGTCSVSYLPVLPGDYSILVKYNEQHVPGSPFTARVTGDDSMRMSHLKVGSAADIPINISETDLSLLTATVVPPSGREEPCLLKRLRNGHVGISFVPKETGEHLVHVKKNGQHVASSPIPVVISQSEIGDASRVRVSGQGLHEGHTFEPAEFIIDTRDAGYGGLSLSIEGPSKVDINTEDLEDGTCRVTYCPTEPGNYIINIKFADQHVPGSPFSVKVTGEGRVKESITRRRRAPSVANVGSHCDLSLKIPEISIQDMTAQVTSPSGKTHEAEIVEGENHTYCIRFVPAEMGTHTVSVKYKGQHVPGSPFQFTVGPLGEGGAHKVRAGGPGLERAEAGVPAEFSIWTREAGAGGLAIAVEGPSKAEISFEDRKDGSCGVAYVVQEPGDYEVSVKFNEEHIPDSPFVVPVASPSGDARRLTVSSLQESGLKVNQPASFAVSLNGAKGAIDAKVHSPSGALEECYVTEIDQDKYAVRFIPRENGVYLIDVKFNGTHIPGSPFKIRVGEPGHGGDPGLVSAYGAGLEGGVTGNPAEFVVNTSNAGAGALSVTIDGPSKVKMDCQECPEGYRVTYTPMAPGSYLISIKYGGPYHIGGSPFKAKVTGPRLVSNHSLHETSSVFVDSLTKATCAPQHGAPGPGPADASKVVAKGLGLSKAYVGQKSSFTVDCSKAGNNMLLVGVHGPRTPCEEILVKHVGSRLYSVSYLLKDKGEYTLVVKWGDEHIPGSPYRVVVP

C=CCN1CC[C@]23c4c5ccc(O)c4O[C@H]2C(=O)CC[C@]3(O)[C@H]1C5 [(+) NLX]
Percent inhibition of FITC-NLX binding (preliminary study) ([1]; 0.1 nM compound): 22.7% | Percent inhibition of FITC-NLX binding (preliminary study) ([1]; 1 nM compound): 22.8% | Percent inhibition of FITC-NLX binding (preliminary study) ([1]; 10 nM compound): 23.1% | Percent inhibition of FITC-NLX binding (preliminary study) ([1]; 100 nM compound): 22.8% | Percent inhibition of FITC-NLX binding (preliminary study) ([1]; 1 mM compound): 39.8%

Nc1ccc(C(=O)N2CCC3(CC2)OCCN3S(=O)(=O)c2ccc(N)cc2)cc1 [Compound C0023]
inhibition at 0.01 µM ([1]; 0.01 μM compound, C-Series-1 table, 10 nM FITC-NLX, read-out: Percent Binding Inhibition): 35.9% | inhibition at 0.1 µM ([1]; 0.1 μM compound, C-Series-1 table, 10 nM FITC-NLX, read-out: Percent Binding Inhibition): 41.7% | inhibition at 1 µM ([1]; 1 μM compound, C-Series-1 table, 10 nM FITC-NLX, read-out: Percent Binding Inhibition): 47.2% | MOR agonist activity ([35S]GTPgS binding to Gao) (mu opiate receptor (MOR); [3]): 153.2% | MOR agonist activity ([35S]GTPgS binding to Gao) (mu opiate receptor (MOR); 1 μM + BFNA, Series C-1 table): 23.2% | MOR agonist activity ([35S]GTPgS binding to Gao) (mu opiate receptor (MOR); [4]): 233.7%

C[C@@H](NC(=O)[C@@H](N)Cc1ccc(O)cc1)C(=O)NCC(=O)N(C)[C@@H](Cc1ccccc1)C(=O)NCCO [DAMGO, [D-Ala2, N-MePhe4, Gly-ol]-enkephalin, reference compound]
MOR agonist activity ([35S]GTPgS binding to Gao) (mu opiate receptor (MOR); [3]): 168.5% | MOR agonist activity ([35S]GTPgS binding to Gao) (mu opiate receptor (MOR); [5]): 168.5% | MOR agonist activity ([35S]GTPgS binding to Gao) (mu opiate receptor (MOR); 1 μM + BFNA, Series C-1 table): 53.2% | MOR agonist activity ([35S]GTPgS binding to Gao) (mu opiate receptor (MOR); 1 μM + BFNA, Series C-2 table): 53.2% | MOR agonist activity ([35S]GTPgS binding to Gao) (mu opiate receptor (MOR); [4]): 266.1% | MOR agonist activity ([35S]GTPgS binding to Gao) (mu opiate receptor (MOR); [6]): 266.1% | MOR agonist activity (preliminary study) (mu opiate receptor (MOR); 1 mM + bNFA): 56.8% | MOR agonist activity (preliminary study) (mu opiate receptor (MOR); 0.1 (unit uncertain) compound as agonist): 144.7% | MOR agonist activity (preliminary study) (mu opiate receptor (MOR); 1 (unit uncertain) compound as agonist): 233.4%

C=CCN1CC[C@]23c4c5ccc(O)c4O[C@H]2C(=O)CC[C@@]3(O)[C@H]1C5 [Naloxone, naloxone, reference compound]
FLNA linkages with CXCR4, CD4 and CCR5 (in words) [2]: reduced these linkages

COc1ccc(S(=O)(=O)N2CCSC23CCNCC3)cc1 [S-C0027]
MOR agonist activity ([35S]GTPgS binding to Gao) (mu opiate receptor (MOR); [5]): 156.2% | MOR agonist activity ([35S]GTPgS binding to Gao) (mu opiate receptor (MOR); 1 μM + BFNA, Series C-2 table): 56.2% | MOR agonist activity ([35S]GTPgS binding to Gao) (mu opiate receptor (MOR); [6]): 286.8%
